# In patent US20120029038A1, “ANIMAL ECTOPARASITE-CONTROLLING AGENT” (SUMITOMO CHEMICAL COMPANY, LIMITED, priority 2010, published 2012):
# Legend:
# Format in all cases: in vivo
# [1] = tested on: ticks (Haemaphysalis longicornis); experiment: Pesticidal activity on ticks in filter paper test; conditions: 48 h, 100 mg/m^2, non-blood-fed young ticks, 2 days later
# Procedure: Each (5 mg) of the present hydrazide compounds (1), (3) to (5), (8), (10) and (13) was dissolved in acetone (10 mL), and this acetone solution (1 mL) was uniformly applied onto one side of a filter paper (TOYO No. 2; 5×10 cm; the surface area of the filter paper was 50 cm^2, and thus the amount of the present hydrazide compound applied was 100 mg/m^2). After drying, said filter paper was folded, and the both sides of the paper were clipped to form a bag. Into this bag, test ticks (Haemaphysalis longicornis, non-blood-fed young ticks, 10 ticks/group) were added, and the opening was clipped to seal the bag. Two (2) days later, the number of dead ticks was examined and the mortality was calculated by the following formula:
# Mortality(%)=100×(number of dead ticks/number of ticks tested)
# [2] = tested on: cat fleas (Ctenocephalides felis); experiment: Dropping application against cat-infested cat fleas
# Procedure: The previous day before dropping application, 50 test fleas (cat flea adults) were deposited on a cat. Before the dropping application, infested fleas were counted.
# Each (0.375 g or 1.5 g) of the present hydrazide compounds (5) and (8) and Comparative compound (52) was dissolved in diethylene glycol monoethyl ether (6.0 g) to prepare a test solution. Said test solution was directly dropped on the skin of the neck and back of the cat while pushing aside fur thereon on at a rate of 0.1 ml per 1 kg of the cat's body weight (dose amount: 5 or 20 mg/kg). This is referred to as a test group. On the other hand, diethylene glycol monoethyl ether alone was applied dropwise to a placebo group.
# Two (2) days after the application, the number of living fleas, which were infesting the cats, was examined. When the examination was completed, all infested fleas were removed from the cats.
# (§1) Fourteen (14) days and 28 days later, 50 test fleas were re-deposited on each cat. Two (2) days after the re-deposit, the number of living fleas, which were infesting the cats, was examined. When the examination was completed, all infested fleas were removed from the cats. The infestation rate and control rate were calculated by the following formulae: […]
# (§2) (i) Method of calculating infestation rate and control rate at the initial stage (2 days) after the application:
# Infestation rate(%) at X days after application=(number of living fleas at X days/number of living fleas before application)×100
# (§3) Control rate(%) at X days after application=(infestation rate of test group before application−infestation rate of test group at X days)/infestation rate of test group before application×100
# (§4) (ii) Method of calculating infestation rate and control rate at 16 days and 30 days after the application:
# Infestation rate(%) at X days after application−(number of living fleas at X days/number of fleas deposited)×100
# (§5) Control rate(%) at X days after the application (infestation rate of placebo group at X days−infestation rate of test group at X days)/infestation rate of placebo group at X days×100
# (§6) In addition, if an infestation rate of a test group is higher than a placebo group, then the control rate is deemed to be 0%.
# [3] = tested on: ticks (Haemaphysalis longicornis); experiment: Oral administration against dog-infested ticks; conditions: oral gelatin capsules, 20 mg/kg
# Procedure: Each of the present hydrazide compounds (5) and (8) and Comparative compound (52) was filled into gelatin capsules, and forcibly and orally administered to a dog in a dose amount of 20 mg per 1 kg of the dog's body weight. This is referred to as a test group. On the other hand, gelatin capsules alone were orally administered to a placebo group.
# (§7) Forty two (42) days later, 100 test ticks were deposited on each dog. Two (2) days after the deposit, the number of living ticks, which were infesting the dogs, was examined. When the examination was completed, all infested ticks were removed from the dogs. The infestation rate and control rate were calculated by the following formulae: […]
# Method of calculating infestation rate and control rate at 44 days after the administration:
# Infestation rate(%) at X days after administration=(number of living ticks at X days/number of ticks deposited)×100
# Control rate(%) at X days after administration (infestation rate of placebo group at X days−infestation rate of test group at X days)/infestation rate of placebo group at X days[…]
# as §6
# [4] = tested on: ticks (Haemaphysalis longicornis); experiment: Dropping application against dog-infested ticks; conditions: dog (beagle), 20 mg/kg
# Procedure: The previous day before dropping application, 100 test ticks (Haemaphysalis longicornis, young ticks) were deposited on a dog (beagle). Before the dropping application, infested ticks were counted.
# Each (1.5 g) of the present hydrazide compounds (5) and (8) was dissolved in diethylene glycol monoethyl ether (6.0 g) to prepare a test solution. Said test solution was directly dropped on the skin of the neck and back of the dog while pushing aside fur thereon at a rate of 0.1 ml per kg of the dog's body weight (dose amount: 20 mg/kg). This is referred to as a test group. On the other hand, diethylene glycol monoethyl ether alone was applied dropwise to a placebo group.
# Two (2) days after the application, the number of living ticks, which were infesting the dogs, was examined. When the examination was completed, all infested ticks were removed from the dogs.
# as §7, with “Fourteen (14) days and 28” for “Forty two (42)”, “re-deposited” for “deposited”, “re-deposit,” for “deposit,”
# as §2
# Infestation rate(%) at X days after application=(number of living ticks at X days/number of living ticks before application)×100
# as §3, §4
# Infestation rate(%) at X days after application=(number of living ticks at X days/number of ticks deposited)×100
# as §5, §6
# [5] = tested on: cat fleas (Ctenocephalides felis); experiment: Oral administration against cat-infested cat fleas; conditions: oral with cat food
# Procedure: The previous day before oral administration, 50 test fleas (cat flea adults) were deposited on a cat. Before the oral administration, infested fleas were counted.
# Each of the present hydrazide compounds (5) and (8) was mixed with a cat food, and orally administered to a cat in a dose amount of 5 or 20 mg per 1 kg of the cat's body weight. This is referred to as a test group. On the other hand, the cat food alone was fed to a placebo group.
# Two (2) days after the administration, the number of living fleas, which were infesting the cats, was examined. When the examination was completed, all infested fleas were removed from the cats.
# as §1, with “Forty two (42)” for “Fourteen (14) days and 28”
# (i) Method of calculating infestation rate and control rate at the initial stage (2 days) after the administration:
# Infestation rate(%) at X days after administration=(number of living fleas at X days/number of living fleas before administration)×100
# Control rate(%) at X days after administration (infestation rate of test group before administration−infestation rate of test group at X days)/infestation rate of test group before administration×100
# (ii) Method of calculating infestation rate and control rate at 44 days after the administration:
# Infestation rate(%) at X days after administration=(number of living fleas at X days/number of fleas deposited)×100
# Control rate(%) at X days after administration (infestation rate of placebo group at X days−infestation rate of test group at X days)/infestation rate of placebo group at X days×100
# as §6
# [6] = tested on: cat fleas (Ctenocephalides felis); experiment: Pesticidal activity on cat fleas in filter paper test; conditions: 48 h
# Procedure: Each (11.3 mg) of the present hydrazide compounds (5) and (8) was dissolved in acetone (5 mL), and this acetone solution ([…]) was uniformly applied onto one side of a filter paper (TOYO No. 2; diameter 3.8 cm; the surface area of the filter paper was 11.3 cm^2, and thus the amount of the present hydrazide compound applied was 400 mg/m^2). After drying, said filter paper was placed on the inside of the lid of a 100 mL vial container. Into the vial container, 20 cat flea adults were released and the lid was closed. The vial container was inverted to force the cat fleas to contact the filter paper. Two (2) days later, the number of dead fleas was examined and the mortality was calculated by the following formula:
# (§8) Mortality(%)=100×(number of dead cat fleas/number of cat fleas tested)
# [7] = tested on: cat fleas (Ctenocephalides felis); experiment: Dropping application against mouse-infested cat fleas; conditions: 0.5% w/v solution 200 μL dropwise along dorsal line, 2 days later
# Procedure: The present hydrazide compound (8) (25 mg) was dissolved in propylene carbonate (5 mL) to prepare a 0.5% w/v solution. Said solution (200 μL) was applied dropwise along the dorsal line of a mouse with a pipette. To a control group, propylene carbonate (200 μL) alone was applied. Each application was repeated 3 times per group.
# After the dropping application, 20 cat fleas were deposited on each mouse. Two (2) days later, the number of dead cat fleas was examined and the mortality was calculated by the following formula:
# as §8
smiles,measurement,setting,value
"O=C(CC(F)(F)F)NNc1cccc(C2=NOC(c3cc(Cl)cc(Cl)c3)(C(F)(F)F)C2)c1 (stereo not drawn) [(1), N′-{3-[5-(3,5-dichlorophenyl)-5-trifluoromethyl-4,5-dihydroisoxazol-3-yl]phenyl}-3,3,3-trifluoropropionohydrazide]",mortality at 100 mg/m2,[1],≥ 90%
"O=C(CC(F)(F)F)NNc1cc(C2=NOC(c3cc(Cl)cc(Cl)c3)(C(F)(F)F)C2)ccc1F (stereo not drawn) [(3), N′-{5-[5-(3,5-dichlorophenyl)-5-trifluoromethyl-4,5-dihydroisoxazol-3-yl]-2-fluorophenyl}-3,3,3-trifluoropropionohydrazide]",mortality at 100 mg/m2,[1],≥ 90%
"O=C(CCCC(F)(F)F)NNc1cc(C2=NOC(c3cc(Cl)cc(Cl)c3)(C(F)(F)F)C2)ccc1Cl (stereo not drawn) [(10), N′-{2-chloro-5-[5-(3,5-dichlorophenyl)-5-trifluoromethyl-4,5-dihydroisoxazol-3-yl]phenyl}-5,5,5-trifluoropentanohydrazide]",mortality at 100 mg/m2,[1],≥ 90%
"CCc1ccc(C2=NOC(c3cc(Cl)cc(Cl)c3)(C(F)(F)F)C2)cc1NNC(=O)CC(F)(F)F (stereo not drawn) [(13), N′-{5-[5-(3,5-dichlorophenyl)-5-trifluoromethyl-4,5-dihydroisoxazol-3-yl]-2-ethylphenyl}-3,3,3-propionohydrazide]",mortality at 100 mg/m2,[1],≥ 90%
"CC(=O)NNc1cc(C2=NOC(c3cc(Cl)cc(Cl)c3)(C(F)(F)F)C2)ccc1Cl (stereo not drawn) [Comparative compound (52), N′-{5-[5-(3,5-dichlorophenyl)-5-trifluoromethyl-4,5-dihydroisoxazol-3-yl]-2-chlorophenyl}acetohydrazide, reference compound]",Flea control rates (%) at 2 days after the application,[2]; 5 mg/kg,25%
same,Flea control rates (%) at 16 days after the application,[2]; 5 mg/kg,87%
same,Flea control rates (%) at 30 days after the application,[2]; 5 mg/kg,58%
same,Tick control rates (%) at 44 days after the administration,[3],74%
"O=C(CCC(F)(F)F)NNc1cc(C2=NOC(c3cc(Cl)cc(Cl)c3)(C(F)(F)F)C2)ccc1Cl (stereo not drawn) [Compound (5), N′-{5-[5-(3,5-dichlorophenyl)-5-trifluoromethyl-4,5-dihydroisoxazol-3-yl]-2-chlorophenyl}-4,4,4-trifluorobutyrohydrazide]",Flea control rates (%) at 2 days after the application,[2]; 5 mg/kg,83%
same,Flea control rates (%) at 16 days after the application,[2]; 5 mg/kg,100%
same,Flea control rates (%) at 30 days after the application,[2]; 5 mg/kg,97%
same,Flea control rates (%) at 2 days after the application,[2]; 20 mg/kg,100%
same,Flea control rates (%) at 16 days after the application,[2]; 20 mg/kg,100%
same,Flea control rates (%) at 30 days after the application,[2]; 20 mg/kg,100%
same,Tick control rates (%) at 2 days after the application,[4],51%
same,Tick control rates (%) at 16 days after the application,[4],100%
same,Tick control rates (%) at 30 days after the application,[4],100%
same,Tick control rates (%) at 44 days after the administration,[3],89%
same,Flea control rates (%) at 2 days after the administration,[5]; 5 mg/kg,100%
same,Flea control rates (%) at 44 days after the administration,[5]; 5 mg/kg,81%
same,Flea control rates (%) at 2 days after the administration,[5]; 20 mg/kg,100%
same,Flea control rates (%) at 44 days after the administration,[5]; 20 mg/kg,100%
same,mortality at 400 mg/m2,[6],≥ 90%
"CN(NC(=O)CCC(F)(F)F)c1cc(C2=NOC(c3cc(Cl)cc(Cl)c3)(C(F)(F)F)C2)ccc1Cl (stereo not drawn) [Compound (8), N′-methyl-N′-{2-chloro-5-[5-(3,5-dichlorophenyl)-5-trifluoromethyl-4,5-dihydroisoxazol-3-yl]phenyl}-4,4,4-trifluorobutyrohydrazide]",Flea control rates (%) at 2 days after the application,[2]; 5 mg/kg,100%
same,Flea control rates (%) at 16 days after the application,[2]; 5 mg/kg,100%
same,Flea control rates (%) at 30 days after the application,[2]; 5 mg/kg,97%
same,Flea control rates (%) at 2 days after the application,[2]; 20 mg/kg,100%
same,Flea control rates (%) at 16 days after the application,[2]; 20 mg/kg,100%
same,Flea control rates (%) at 30 days after the application,[2]; 20 mg/kg,100%
same,Mortality,[7],≥ 70%
same,Tick control rates (%) at 2 days after the application,[4],31%
same,Tick control rates (%) at 16 days after the application,[4],100%
same,Tick control rates (%) at 30 days after the application,[4],100%
same,Tick control rates (%) at 44 days after the administration,[3],93%
same,Flea control rates (%) at 2 days after the administration,[5]; 5 mg/kg,100%
same,Flea control rates (%) at 44 days after the administration,[5]; 5 mg/kg,90%
same,Flea control rates (%) at 2 days after the administration,[5]; 20 mg/kg,100%
same,Flea control rates (%) at 44 days after the administration,[5]; 20 mg/kg,100%
same,mortality at 400 mg/m2,[6],≥ 90%
